Laboratory results taken from PubChem BioAssay (NCI).
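Briefly, cells in 96-well plates were exposed to five compound concentrations for 48 h, and endpoints were estimated by linear interpolation. TGI marks complete inhibition of growth.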

How the values were obtained:
Assay in all cases: DTP human tumour cell line panel, 48 h
[1] = tested on: A549 NSCLC
[2] = tested on: ACHN renal
[3] = tested on: BT-549 breast
[4] = tested on: CAKI-1 renal
[5] = tested on: CCRF-CEM leukemia
[6] = tested on: COLO 205 colon
[7] = tested on: DU-145 prostate
[8] = tested on: EKVX NSCLC
[9] = tested on: HCC-2998 colon
[10] = tested on: HCT-116 colon
[11] = tested on: HOP-92 NSCLC
[12] = tested on: HS 578T breast
[13] = tested on: HT29 colon
[14] = tested on: IGROV1 ovarian
[15] = tested on: K-562 leukemia
[16] = tested on: KM12 colon
[17] = tested on: LOX IMVI melanoma
[18] = tested on: M14 melanoma
[19] = tested on: MALME-3M melanoma
[20] = tested on: MCF7 breast
[21] = tested on: MDA-MB-435
[22] = tested on: MDA-N
[23] = tested on: MOLT-4 leukemia
[24] = tested on: NCI-H226 lung
[25] = tested on: NCI-H23 lung
[26] = tested on: NCI-H460 lung
[27] = tested on: NCI-H522 lung
[28] = tested on: NCI/ADR-RES ovarian
[29] = tested on: OVCAR-3 ovarian
[30] = tested on: OVCAR-4 ovarian
[31] = tested on: OVCAR-5 ovarian
[32] = tested on: OVCAR-8 ovarian
[33] = tested on: PC-3 prostate
[34] = tested on: RPMI-8226 leukemia
[35] = tested on: RXF 393 renal
[36] = tested on: SF-268 CNS
[37] = tested on: SF-295 CNS
[38] = tested on: SF-539 CNS
[39] = tested on: SK-MEL-2 melanoma
[40] = tested on: SK-MEL-28 melanoma
[41] = tested on: SK-MEL-5 melanoma
[42] = tested on: SK-OV-3 ovarian
[43] = tested on: SN12C renal
[44] = tested on: SNB-19 CNS
[45] = tested on: SNB-75 CNS
[46] = tested on: SR leukemia
[47] = tested on: SW-620 colon
[48] = tested on: T-47D breast
[49] = tested on: TK-10 renal
[50] = tested on: U251 CNS
[51] = tested on: UACC-257 melanoma
[52] = tested on: UACC-62 melanoma
[53] = tested on: UO-31 renal
[54] = tested on: 786-0 renal
[55] = tested on: A498 renal
[56] = tested on: HCT-15 colon
[57] = tested on: HL-60(TB) leukemia
[58] = tested on: HOP-62 NSCLC
[59] = tested on: MDA-MB-231 breast

## Cc1cc(C)c(S(=O)(=O)N(CCCCN)OCCCN)c(C)c1
[1]
  TGI: 36.1 µM
[2]
  TGI: 37 µM
[3]
  TGI: 33.8 µM
[4]
  TGI: 31.3 µM
[5]
  TGI: 38.3 µM
[6]
  TGI: 22.7 µM
[7]
  TGI: 29.4 µM
[8]
  TGI: 31 µM
[9]
  TGI: 5.59 µM
[10]
  TGI: 30.9 µM
[11]
  TGI: 34.5 µM
[12]
  TGI: 34.4 µM
[13]
  TGI: 27.8 µM
[14]
  TGI: 29.4 µM
[15]
  TGI: 44.4 µM
[16]
  TGI: 35 µM
[17]
  TGI: 31.9 µM
[18]
  TGI: 35.9 µM
[19]
  TGI: 36.3 µM
[20]
  TGI: 35.3 µM
[21]
  TGI: 30.7 µM
[22]
  TGI: 31.1 µM
[23]
  TGI: 28.6 µM
[24]
  TGI: 31.8 µM
[25]
  TGI: 43.2 µM
[26]
  TGI: 33.4 µM
[27]
  TGI: 29.9 µM
[28]
  TGI: 36.5 µM
[29]
  TGI: 36.3 µM
[30]
  TGI: 32.3 µM
[31]
  TGI: 35.6 µM
[32]
  TGI: 32.8 µM
[33]
  TGI: 27.6 µM
[34]
  TGI: 26 µM
[35]
  TGI: 31.6 µM
[36]
  TGI: 34.3 µM
[37]
  TGI: 37 µM
[38]
  TGI: 41.6 µM
[39]
  TGI: 30.9 µM
[40]
  TGI: 32.4 µM
[41]
  TGI: 39.9 µM
[42]
  TGI: 31.8 µM
[43]
  TGI: 34.4 µM
[44]
  TGI: 34.5 µM
[45]
  TGI: 27.5 µM
[46]
  TGI: 38 µM
[47]
  TGI: 32.6 µM
[48]
  TGI: 33.4 µM
[49]
  TGI: 32 µM
[50]
  TGI: 28.8 µM
[51]
  TGI: 30.2 µM
[52]
  TGI: 30.7 µM
[53]
  TGI: 31.8 µM

## CCCn1c(C23CC4CC(CC(C4)C2)C3)nc2ccc(Cl)cc2c1=O
[54]
  TGI: > 100 µM
[55]
  TGI: 66.1 µM
[1]
  TGI: > 100 µM
[2]
  TGI: 47.9 µM
[3]
  TGI: > 100 µM
[4]
  TGI: > 100 µM
[5]
  TGI: > 100 µM
[6]
  TGI: > 100 µM
[7]
  TGI: 95.9 µM
[8]
  TGI: 95.4 µM
[10]
  TGI: > 100 µM
[56]
  TGI: > 100 µM
[57]
  TGI: > 100 µM
[58]
  TGI: 70.1 µM
[11]
  TGI: > 100 µM
[12]
  TGI: > 100 µM
[13]
  TGI: 80.2 µM
[14]
  TGI: > 100 µM
[15]
  TGI: > 100 µM
[16]
  TGI: > 100 µM
[17]
  TGI: > 100 µM
[18]
  TGI: > 100 µM
[19]
  TGI: > 100 µM
[20]
  TGI: > 100 µM
[59]
  TGI: > 100 µM
[21]
  TGI: > 100 µM
[22]
  TGI: > 100 µM
[23]
  TGI: > 100 µM
[24]
  TGI: > 100 µM
[25]
  TGI: > 100 µM
[26]
  TGI: > 100 µM
[27]
  TGI: > 100 µM
[28]
  TGI: > 100 µM
[29]
  TGI: > 100 µM
[30]
  TGI: > 100 µM
[31]
  TGI: > 100 µM
[32]
  TGI: > 100 µM
[33]
  TGI: > 100 µM
[34]
  TGI: > 100 µM
[35]
  TGI: 29 µM
[36]
  TGI: > 100 µM
[37]
  TGI: > 100 µM
[38]
  TGI: > 100 µM
[39]
  TGI: > 100 µM
[40]
  TGI: > 100 µM
[41]
  TGI: > 100 µM
[42]
  TGI: > 100 µM
[43]
  TGI: > 100 µM
[44]
  TGI: > 100 µM
[47]
  TGI: > 100 µM
[48]
  TGI: > 100 µM
[49]
  TGI: > 100 µM
[50]
  TGI: > 100 µM
[51]
  TGI: > 100 µM
[52]
  TGI: > 100 µM
[53]
  TGI: 39.5 µM

## S=c1nc[nH]c2c1ncn2Cc1ccco1
[54]
  TGI: > 100 µM
[55]
  TGI: > 100 µM
[1]
  TGI: > 100 µM
[2]
  TGI: > 100 µM
[3]
  TGI: > 100 µM
[4]
  TGI: > 100 µM
[6]
  TGI: > 100 µM
[7]
  TGI: > 100 µM
[8]
  TGI: > 100 µM
[9]
  TGI: > 100 µM
[10]
  TGI: > 100 µM
[56]
  TGI: > 100 µM
[58]
  TGI: > 100 µM
[11]
  TGI: > 100 µM
[12]
  TGI: > 100 µM
[13]
  TGI: > 100 µM
[14]
  TGI: > 100 µM
[15]
  TGI: > 100 µM
[16]
  TGI: > 100 µM
[17]
  TGI: > 100 µM
[18]
  TGI: > 100 µM
[19]
  TGI: > 100 µM
[20]
  TGI: > 100 µM
[59]
  TGI: > 100 µM
[21]
  TGI: > 100 µM
[22]
  TGI: > 100 µM
[23]
  TGI: > 100 µM
[24]
  TGI: > 100 µM
[25]
  TGI: > 100 µM
[26]
  TGI: > 100 µM
[27]
  TGI: > 100 µM
[28]
  TGI: > 100 µM
[29]
  TGI: > 100 µM
[30]
  TGI: > 100 µM
[31]
  TGI: > 100 µM
[32]
  TGI: > 100 µM
[33]
  TGI: > 100 µM
[34]
  TGI: > 100 µM
[35]
  TGI: > 100 µM
[36]
  TGI: > 100 µM
[37]
  TGI: > 100 µM
[38]
  TGI: > 100 µM
[39]
  TGI: > 100 µM
[40]
  TGI: > 100 µM
[41]
  TGI: > 100 µM
[42]
  TGI: > 100 µM
[43]
  TGI: > 100 µM
[44]
  TGI: > 100 µM
[45]
  TGI: > 100 µM
[46]
  TGI: > 100 µM
[47]
  TGI: > 100 µM
[48]
  TGI: > 100 µM
[49]
  TGI: > 100 µM
[50]
  TGI: > 100 µM
[51]
  TGI: > 100 µM
[52]
  TGI: > 100 µM
[53]
  TGI: > 100 µM

## COc1ccccc1/C=C\c1cnnc2ccccc12
[54]
  TGI: > 10 µM
[55]
  TGI: > 10 µM
[1]
  TGI: > 10 µM
[2]
  TGI: > 10 µM
[3]
  TGI: > 10 µM
[4]
  TGI: > 10 µM
[5]
  TGI: > 10 µM
[6]
  TGI: > 10 µM
[7]
  TGI: > 10 µM
[8]
  TGI: > 10 µM
[9]
  TGI: > 10 µM
[10]
  TGI: > 10 µM
[56]
  TGI: > 10 µM
[57]
  TGI: > 10 µM
[58]
  TGI: > 10 µM
[11]
  TGI: 7.61 µM
[12]
  TGI: > 10 µM
[13]
  TGI: > 10 µM
[14]
  TGI: > 10 µM
[15]
  TGI: > 10 µM
[16]
  TGI: > 10 µM
[17]
  TGI: > 10 µM
[18]
  TGI: > 10 µM
[19]
  TGI: > 10 µM
[20]
  TGI: > 10 µM
[59]
  TGI: > 10 µM
[21]
  TGI: > 10 µM
[22]
  TGI: 9.66 µM
[23]
  TGI: > 10 µM
[24]
  TGI: > 10 µM
[25]
  TGI: > 10 µM
[26]
  TGI: > 10 µM
[27]
  TGI: > 10 µM
[28]
  TGI: > 10 µM
[29]
  TGI: > 10 µM
[30]
  TGI: > 10 µM
[31]
  TGI: > 10 µM
[32]
  TGI: > 10 µM
[33]
  TGI: > 10 µM
[34]
  TGI: > 10 µM
[35]
  TGI: > 10 µM
[36]
  TGI: > 10 µM
[37]
  TGI: > 10 µM
[38]
  TGI: > 10 µM
[39]
  TGI: > 10 µM
[40]
  TGI: > 10 µM
[41]
  TGI: > 10 µM
[42]
  TGI: > 10 µM
[43]
  TGI: > 10 µM
[44]
  TGI: > 10 µM
[45]
  TGI: > 10 µM
[47]
  TGI: > 10 µM
[48]
  TGI: > 10 µM
[49]
  TGI: > 10 µM
[50]
  TGI: > 10 µM
[51]
  TGI: > 10 µM
[52]
  TGI: > 10 µM
